# According to patent US6780619B2, “D-aminoacylase and gene encoding the same” (priority 2000, dated 2004):
# B1: D-aminoacylase: D-aminoacylase purified from Hypomyces mycophilus IFO 6785, comprising the amino acid sequence of SEQ ID NO: 2 (protein)
# chain: MRTEILFHSATVITGDEAAQPFVADVLVSKGLIAKIGNPGSINATPDTRHLDVTGYILSPGFIDMHAHSDLYLLSHPDHEAKITQGCTTEVVGQDGISYAPIRNVDQLRAIREQIAGWNGNPTDEECRTTLKGVGMFEWQTIGEYLDCLERNRTATNVAMLVPQGNLRLLACGPYDTPASAEEIQDQIQLLREAMAQGAVGMSSGLTYTPGMYASTSELASLCAALAQEFPGAFYAPHHRSYGFQAIESYAEMLDLGESTGCPIHLTHATLNFSENKGKAPVLISMVDKSLAAGVDVTLDTYPYLPGCTTLAALLPSWASAGGPQETLKRLEDAESREKIRIAVEIKGCDGGHGIPTNWDEIQIGTTNEPSIASYSGRRLSEVAQSVGKPTIEVFFEILQKDKLATSCIMHVGNEENVRQIMQHRVHMAGSDGILHGQTLHPRAYGTFTRYLGHYSRELSLVALPSMIAHLTSRPAKRLSVYPYRGLIAEGSAADIVVFNPETVKDMSTYEEPKVPSRGIRFVLVNGQIAVDEGKMTGTRGGKTLRRSTDGKVKARDE
# What was measured:
# [1] = in vivo; cited from earlier work
# [2] = tested on: D-aminoacylase; experiment: Stabilizer/activator effect on D-aminoacylase activity; format: biochemical, Hypomyces mycophilus
# Source text: (f) stabilizer: the enzyme activity is stabilized by reducing agents and activated by ICH2CONH2.
# [3] = tested on: D-aminoacylase; experiment: Substrate specificity of the D-aminoacylase (amino acid produced, assayed by TNBS or HPLC method); format: biochemical, Hypomyces mycophilus; settings: for catalytic activity of the D-aminoacylase for the substrate: 20 mM substrate, 50 mM Tris-HCl pH 7.5, 30° C., 20 minutes; for substrate specificity: the enzyme acts on / not on the substrate: purified enzyme, property (c)
# Method: The substrate specificity of the D-aminoacylase of the present invention can be tested by the following procedure. For example, an enzyme solution (1 μl) is mixed and incubated with 50 mM Tris-HCl (pH 7.5) buffer (total volume: 1.0 ml) containing 20 mM substrate (various N-acetyl-D-amino acids) at 30° C. for 20 minutes. By measuring the amounts of amino acid synthesized by this reaction, enzymatic activities for respective substrates can be compared with each other. Assay for amino acid is performed by TNBS (trinitrobenzenesulfonic acid) method or HPLC method. For example, D-tryptophan, which may be used as a standard product in the reaction, is assayed for a comparison of enzymatic activity; by taking the amount of enzyme required for the production of 1 μmol D-tryptophan as 1 unit (or U), the reactivity is compared between different enzymes or is compared with the reactivity assayed for other types of amino acids.
# [4] = Optimal reaction temperature of the purified D-aminoacylase; format: biochemical, Hypomyces mycophilus; settings: reaction at pH 7.5
# Method: (e) optimal temperature: for the reaction at pH 7.5, the enzyme activity is optimal at about 45° C.; and […]
Molecule,catalytic activity of the D-aminoacylase for the substrate [3],substrate specificity: the enzyme acts on / not on the substrate [3],other results
"O=C1CCC(N2C(=O)c3ccccc3C2=O)C(=O)N1 [D(R)-form thalidomide, thalidomide]",–,–,teratogenic activity [1]: no teratogenic activity
NC(=O)CI [ICH2CONH2],–,–,effect on D-aminoacylase enzyme activity [2]: activated
"O=C1CCC(N2C(=O)c3ccccc3C2=O)C(=O)N1 [L(S)-form, thalidomide]",–,–,teratogenic activity [1]: strong teratogenicity
CC(=O)N[C@H](CC(C)C)C(=O)O [N-acetyl-D-leucine],efficiently catalyzes the reaction,acts on,–
CSCC[C@@H](NC(C)=O)C(=O)O [N-acetyl-D-methionine],efficiently catalyzes the reaction,acts on,–
CC(=O)N[C@H](Cc1ccccc1)C(=O)O [N-acetyl-D-phenylalanine],very efficiently catalyzes the reaction,acts on,–
CC(=O)N[C@H](Cc1c[nH]c2ccccc12)C(=O)O [N-acetyl-D-tryptophan],efficiently catalyzes the reaction,acts on,–
CC(=O)N[C@@H](C(=O)O)C(C)C [N-acetyl-D-valine],catalyzes the reaction,acts on,–
CC(=O)N[C@@H](CC(C)C)C(=O)O [N-acetyl-L-leucine],substantially no catalytic activity,not on,–
CSCC[C@H](NC(C)=O)C(=O)O [N-acetyl-L-methionine],substantially no catalytic activity,not on,–
CC(=O)N[C@@H](Cc1ccccc1)C(=O)O [N-acetyl-L-phenylalanine],substantially no catalytic activity,not on,–
CC(=O)N[C@@H](Cc1c[nH]c2ccccc12)C(=O)O [N-acetyl-L-tryptophan],substantially no catalytic activity,not on,–
CC(=O)N[C@H](C(=O)O)C(C)C [N-acetyl-L-valine],substantially no catalytic activity,not on,–
O=C(CCl)N[C@H](Cc1ccccc1)C(=O)O [N-chloroacetyl-D-phenylalanine],very efficiently catalyzes the reaction,–,–
B1,–,–,optimal temperature of enzyme activity [4]: about 45 °C
